Source: ChEMBL document CHEMBL1201862, “PubChem BioAssay data set” (2004)
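Five compound concentrations were applied to cells in 96-well plates for 48 hours; endpoints were derived by simple linear interpolation of the resulting dose-response curve. Here, GI50 denotes the concentration required for 50% inhibition of growth.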 Active and inactive are the calls of the source. Rule as the data show it: active = GI50 up to about 1.1 µM and inactive = higher.

Legend:
Test in all cases: NCI anticancer screen, dose series, 48 h
[1] = tested on: SK-OV-3
[2] = tested on: NCI-H226
[3] = tested on: KM12
[4] = tested on: UO-31
[5] = tested on: CAKI-1
[6] = tested on: HCC 2998
[7] = tested on: HT-29
[8] = tested on: UACC-257
[9] = tested on: EKVX
[10] = tested on: A549
[11] = tested on: SK-MEL-5
[12] = tested on: COLO 205
[13] = tested on: SK-MEL-2
[14] = tested on: NCI-H522
[15] = tested on: OVCAR-8
[16] = tested on: SK-MEL-28
[17] = tested on: IGROV-1
[18] = tested on: M14
[19] = tested on: 786-0

Measured: GI50

CC1C(=O)C(C)C(c2ccco2)N(N=O)C1c1ccco1 (stereo unspecified)
inactive: [1] > 100 µM | [2] > 100 µM | [3] > 100 µM | [4] > 100 µM | [5] > 100 µM | [6] > 100 µM | [7] > 100 µM | [8] > 100 µM | [9] > 100 µM | [10] > 100 µM | [11] > 100 µM | [12] > 100 µM | [13] > 100 µM | [14] > 100 µM | [15] > 100 µM | [16] > 100 µM | [17] > 100 µM

CCOc1ccccc1N1C(=O)C(=O)C(c2nc3ccccc3o2)/C(=N\N)C1=O (stereo unspecified)
inactive: [1] > 100 µM | [2] > 100 µM | [18] > 100 µM | [3] > 100 µM | [4] 31.2 µM | [5] > 100 µM | [19] > 100 µM | [6] > 100 µM | [7] 70.5 µM | [8] 49.9 µM | [9] > 100 µM | [10] > 100 µM | [11] > 100 µM | [12] > 100 µM | [13] > 100 µM | [14] > 100 µM | [15] > 100 µM | [16] > 100 µM | [17] > 100 µM

COc1ccc(C(N)=O)cc1/N=N/N(C)C
inactive: [1] > 100 µM | [2] > 100 µM | [18] > 100 µM | [3] > 100 µM | [4] > 100 µM | [5] > 100 µM | [19] > 100 µM | [6] > 100 µM | [7] > 100 µM | [8] > 100 µM | [9] > 100 µM | [10] > 100 µM | [11] > 100 µM | [12] > 100 µM | [13] > 100 µM | [14] > 100 µM | [15] 78.3 µM | [16] > 100 µM | [17] > 100 µM

CC1=C2C(O)C(C(C)C(=O)N(C)C)CCC2(C)C=CC1=O (stereo unspecified)
inactive: [1] > 100 µM | [2] > 100 µM | [3] > 100 µM | [4] > 100 µM | [5] > 100 µM | [6] > 100 µM | [7] > 100 µM | [8] > 100 µM | [9] > 100 µM | [10] > 100 µM | [11] > 100 µM | [12] > 100 µM | [13] > 100 µM | [14] > 100 µM | [15] > 100 µM | [16] > 100 µM | [17] > 100 µM

CN(C)CCNC(=O)c1cccc2ncc(-c3ccccc3)nc12
inactive: [1] 16.4 µM | [2] 7.91 µM | [18] 13.9 µM | [3] 11.8 µM | [4] 8.89 µM | [5] 6.58 µM | [19] 10 µM | [6] 9.59 µM | [7] 6.17 µM | [8] 14.7 µM | [9] 13.3 µM | [10] 6.9 µM | [11] 11.5 µM | [12] 4.11 µM | [13] 14.6 µM | [14] 5.78 µM | [15] 7.52 µM | [16] 18.2 µM | [17] 20.5 µM

Cc1ccccc1NC(=O)C1C(=O)N(c2ccccc2C)C(=O)/C1=N\N (stereo unspecified)
inactive: [1] > 100 µM | [2] > 100 µM | [18] > 100 µM | [3] > 100 µM | [4] > 100 µM | [5] > 100 µM | [19] > 100 µM | [6] > 100 µM | [7] > 100 µM | [8] > 100 µM | [9] > 100 µM | [10] > 100 µM | [11] > 100 µM | [12] > 100 µM | [13] > 100 µM | [14] > 100 µM | [15] > 100 µM | [16] > 100 µM | [17] > 100 µM

O=C(O)c1ccc(C2COc3ccc(Cl)cc3C2)cc1 (stereo unspecified)
inactive: [1] > 100 µM | [2] > 100 µM | [18] > 100 µM | [3] > 100 µM | [4] > 100 µM | [5] > 100 µM | [19] > 100 µM | [6] > 100 µM | [7] > 100 µM | [8] > 100 µM | [9] > 100 µM | [10] > 100 µM | [11] > 100 µM | [12] > 100 µM | [13] > 100 µM | [14] > 100 µM | [15] > 100 µM | [16] > 100 µM | [17] > 100 µM

Cc1cccc(C(C)(C)C)c1NC(=O)C(=O)C(c1cnc2ccccc2n1)[N+](=O)[O-] (stereo unspecified)
inactive: [1] > 100 µM | [2] > 100 µM | [18] > 100 µM | [3] > 100 µM | [4] > 100 µM | [5] > 100 µM | [19] > 100 µM | [6] > 100 µM | [7] > 100 µM | [8] > 100 µM | [9] > 100 µM | [10] > 100 µM | [11] > 100 µM | [12] > 100 µM | [13] > 100 µM | [14] 38.5 µM | [15] > 100 µM | [16] > 100 µM | [17] > 100 µM

CCOC(=O)C(=O)Nc1ccc(C)c(C)c1
inactive: [1] > 100 µM | [2] > 100 µM | [18] > 100 µM | [3] > 53.8 µM | [4] > 100 µM | [5] > 100 µM | [19] > 100 µM | [6] > 100 µM | [7] > 56.2 µM | [8] > 100 µM | [9] > 100 µM | [10] > 100 µM | [11] > 100 µM | [12] 17.1 µM | [13] > 100 µM | [14] > 100 µM | [16] > 100 µM | [17] > 100 µM

O=C(/C=C/c1ccccc1O)c1cccc2ccccc12
inactive: [1] > 100 µM | [2] > 46.3 µM | [18] > 100 µM | [3] 40.3 µM | [4] > 47.4 µM | [5] > 92.9 µM | [19] 58.7 µM | [6] > 74.1 µM | [7] > 66.5 µM | [8] > 69.5 µM | [9] > 87.9 µM | [10] > 80.2 µM | [11] > 100 µM | [12] > 44.8 µM | [13] > 100 µM | [14] 51.9 µM | [15] > 71 µM | [16] > 100 µM | [17] > 51.4 µM

CC1=C(C(=O)Nc2ccccc2C)C(c2ccc(C3C(C(=O)Nc4ccccc4C)=CNC=C3C(=O)Nc3ccccc3C)cc2)C(C(=O)Nc2ccccc2C)=C(C)N1
inactive: [1] 27.3 µM | [2] 17 µM | [18] 16.8 µM | [3] 14.1 µM | [4] 18.7 µM | [5] 21.3 µM | [19] 15.1 µM | [6] 17.8 µM | [7] 14.4 µM | [8] 17.1 µM | [9] 17.9 µM | [10] 40.6 µM | [11] 12.9 µM | [12] 21 µM | [13] 15.7 µM | [14] 6.68 µM | [15] 25.6 µM | [16] 17.9 µM | [17] 18.6 µM

O=C1OC2(c3ccccc3Oc3ccccc32)c2ccccc21
inactive: [1] > 100 µM | [2] > 100 µM | [18] > 100 µM | [3] > 100 µM | [4] > 100 µM | [5] > 100 µM | [19] > 100 µM | [6] > 100 µM | [7] > 100 µM | [8] 99.5 µM | [9] > 100 µM | [10] > 100 µM | [11] > 100 µM | [12] > 100 µM | [13] > 100 µM | [14] 69.8 µM | [15] > 100 µM | [16] > 100 µM | [17] > 100 µM

OC(c1cc2ccccc2[nH]1)C(O)(c1cc2ccccc2[nH]1)c1cc2ccccc2[nH]1 (stereo unspecified)
inactive: [1] 10.4 µM | [2] 11.8 µM | [3] 8 µM | [5] 19.9 µM | [19] 6.89 µM | [6] 8.09 µM | [7] 9.18 µM | [8] 16.3 µM | [9] 12.3 µM | [10] 12.6 µM | [11] 11.6 µM | [12] 4.44 µM | [13] 17.9 µM | [14] 8.61 µM | [15] 15.9 µM | [16] 19.1 µM | [17] 8.81 µM

CC1C2CC=CC(=O)[C@@]2(C)CCC12OCCO2 (stereo partly specified)
inactive: [1] > 100 µM | [2] > 100 µM | [18] 97.1 µM | [3] > 100 µM | [4] > 100 µM | [5] > 100 µM | [19] > 100 µM | [6] > 100 µM | [7] > 100 µM | [8] > 100 µM | [9] > 100 µM | [10] > 100 µM | [11] 24.6 µM | [13] > 100 µM | [14] > 100 µM | [15] > 100 µM | [16] > 100 µM | [17] > 100 µM

C=C1C(=O)O[C@@H]2[C@H]1CCC(C)=C1C=CC(=O)[C@]12C
inactive: [1] 27.2 µM | [2] 22.9 µM | [3] 12.4 µM | [4] 14.9 µM | [5] 15.1 µM | [19] > 10 µM | [6] 13.2 µM | [7] 10.9 µM | [8] 12.4 µM | [9] 17 µM | [10] 23.6 µM | [11] 13.9 µM | [12] 8.36 µM | [13] 20.7 µM | [14] 2.42 µM | [15] 17.3 µM | [16] 11.1 µM | [17] 21.8 µM
